In patent US11680047B2, “Enhanced erythropoiesis and iron metabolism” (FibroGen, Inc., priority 2003, dated 2023):

Key:
EPO production [1] = assay: Secreted EPO (ELISA) in Hep3B cells treated with TNF-α; format: cell-based; details: for effect on suppression of EPO production by TNF-α: 2-hour pre-treatment with TNF-α, EPO 3 days after compound addition; for effect on inhibition of EPO production by TNF-α: compound in the presence of TNF-α (0.4-10 ng/ml); for effect on inhibition of EPO production by TNF-α / EPO production: 3 days; for EPO production: various concentrations of compound, absence of TNF-α
Description: (§1) Hep3B cells were treated with various concentrations (0, 0.4, 2, 10 ng/ml) of TNF-α in the absence or presence of compound A or compound B for 3 days. Secreted EPO levels were determined using a commercially available ELISA kit (R&D Systems, catalog no. DEP00). In the absence of compound, treatment of Hep3B cells with TNF-α reduced EPO production in a dose-dependent manner. […] Therefore, inhibitory effects of the inflammatory cytokine TNF-α on EPO production were overcome by inhibition of prolyl hydroxylase activity using compounds and methods of the present invention. […] Further, the methods and compounds of the present invention are useful to increase EPO production and, therefore, to treat anemia in a subject, for example, wherein the subject has a disorder associated with TNF-αQ such as acute or chronic inflammation or other anemia of chronic disease.
(§2) A series of experiments were performed to examine the effects of compounds of the present invention on EPO production following exposure of cells to the inflammatory cytokine TNF-α (i.e., in cells already exposed to TNF-α). In these experiments, TNF-α signaling would therefore be initiated prior to the addition of a prolyl hydroxylase inhibitor. Hep3B cells were treated with various concentrations (0, 0.4, 2, 10 ng/ml) of TNF-α for 2 hours, after which various concentrations of compound A or compound B were added to the cultured cells. Secreted EPO levels were determined as described above 3 days following compound addition.

EPO production [2] = assay: Secreted EPO (ELISA) in Hep3B cells treated with IL-1β; format: cell-based; details: for effect on suppression of EPO production by IL-1β: 2-hour pre-treatment with IL-1β, EPO 3 days after compound addition; for effect on inhibition of EPO production by IL-1β: compound in the presence of IL-1β (0.4-10 ng/ml); for effect on inhibition of EPO production by IL-1β / EPO production: 3 days; for EPO production: various concentrations of compound, absence of IL-1β
Description: as §1, with “IL-1β” for “TNF-α”, “IL-1β” for “TNF-αQ”
as §2, with “IL-1β” for “TNF-α”, “IL-1β).” for “TNF-α).”

E-selectin [3] = assay: TNF-α induced E-selectin expression in HUVEC; format: cell-based, human; details: 1 ng/ml TNF-α, various concentrations, 1 day
Excerpt: Endothelial E-selectin belongs to the selectin family of cellular adhesion molecules mediating the initial attachment of leukocytes to vascular endothelial cells in inflammatory events. IL-1β, TNF-α, and lipopolysaccharides each induce the expression of E-selectin. (See, e.g., Bevilacqua et al. (1987) Proc Natl Acad Sci USA 84:9238-9242 and Bevilacqua and van Furth (1993) J Leukoc Biol 54:363-378.) To investigate the effect of HIF prolyl hydroxylase inhibition on TNF-α induced E-selectin expression, HUVECs were stimulated with 1 ng/ml TNF-α in the absence or presence of various concentrations of compound B or compound C for 1 day. E-selectin and VCAM expression were then measured.

E-selectin [4] = assay: IL-1β induced E-selectin expression in HUVEC; format: cell-based, human; details: 1 ng/ml IL-1β, 1 day
Description: To investigate the effect of HIF prolyl hydroxylase inhibition on IL-1β induced E-selectin expression, HUVECs were stimulated with 1 ng/ml IL-1β in the absence or presence of various concentrations of compound B or compound C for 1 day. E-selectin expression was then measured.

EPO production [5] = assay: Secreted EPO (ELISA) in Hep3B cells treated with IL-6; format: cell-based; details: for effect of compound treatment on EPO production in the presence of IL-6: compound plus IL-6
Description: Secreted EPO levels were determined using a commercially available ELISA kit (R&D Systems, catalog no. DEP00). […] As shown in FIGS. 27A and 27B, Hep3B cells treated with IL-6 increased EPO expression slightly above that in non-treated cells. Specifically, EPO levels in control cells was approximately 20 mIU/ml, while that in cells treated with 10 ng/ml IL-6 was approximately 50 mIU/ml.

transferrin receptor [6] = assay: Transferrin receptor expression by FACS (CD71-PE antibody) in Hep3B cells; format: cell-based; details: 1 day
Description: (§3) The effect of compounds of the invention on transferrin receptor expression was examined as follows. Various cells (Hep3B, HepG2, HK-2) were incubated with compound A or compound B for 1 day. The cells were then analyzed for transferrin receptor expression by FACS analysis using CD71-PE antibody (Ancell, catalog no. 223-050).

transferrin receptor [7] = assay: Transferrin receptor expression by FACS (CD71-PE antibody) in HepG2 cells; format: cell-based; details: HepG2, 1 day
Description: as §3

transferrin receptor [8] = assay: Transferrin receptor expression by FACS (CD71-PE antibody) in HK-2 cells; format: cell-based; details: HK-2, 1 day
Description: as §3

NRAMP2 = NRAMP2 mRNA in small intestine of mice after IV administration (microarray); format: in vivo, mouse; details: 60 mg/kg IV, 4 hours
Description: In another experiment, mRNA was isolated from small intestine harvested 4 hours following IV administration of 60 mg/kg compound A, compound B, and compound C to mice. Probes were prepared from each of two animals from 5 treatment groups, and hybridized to Affymetrix mouse MOE430Aplus2 microarrays (one animal per array). Statistical comparisons of data obtained from arrays from treated versus non-treated animals was performed. […] Expression levels are shown as fold-induction over control, untreated animals for each expressed gene.

[9] = 10 µM compound, absence of IL-6
[10] = compound in the presence of 10 ng/ml IL-6

| SMILES | effect on suppression of EPO production by TNF-α (EPO production [1]) | effect on inhibition of EPO production by TNF-α (EPO production [1]) | EPO production (EPO production [1]) | effect on suppression of EPO production by IL-1β (EPO production [2]) | effect on inhibition of EPO production by IL-1β (EPO production [2]) | EPO production (EPO production [2]) | inhibition of TNF-α induced E-selectin expression (E-selectin [3]) | inhibition of IL-1β induced E-selectin expression (E-selectin [4]) | EPO levels (EPO production [5]; [9]) | EPO levels (EPO production [5]; [10]) | effect of compound treatment on EPO production in the presence of IL-6 (EPO production [5]) | EPO levels (EPO production [5]; compound without IL-6) | Mean FL (transferrin receptor) (transferrin receptor [6]) | Mean FL (transferrin receptor) (transferrin receptor [7]) | Mean FL (transferrin receptor) (transferrin receptor [8]) | NRAMP2 mRNA expression in small intestine (NRAMP2) |
| --- | --- | --- | --- | --- | --- | --- | --- | --- | --- | --- | --- | --- | --- | --- | --- | --- |
| O=C(O)CNC(=O)c1ncc2cc(Oc3ccccc3)ccc2c1O [Compound B, [(4-Hydroxy-7-phenoxy-isoquinoline-3-carbonyl)-amino]-acetic acid] | overcame the suppressive effects of TNF-α on EPO production | greatly reduced the inhibitory effects of TNF-α on EPO production | dose-dependent increase in EPO production | overcame the suppressive effects of IL-1 on EPO production | greatly reduced the inhibitory effects of IL-1β on EPO production | dose-dependent increase in EPO production | dose-dependent inhibition of TNF-α induced VCAM and E-selectin expression | dose-dependent inhibition of IL-1β induced E-selectin expression | ~220 mIU/ml | greater than 400 mIU/ml | synergistic | increased EPO levels in a dose-dependent manner | 42.43 | 53.53 | 18.92 | increasing expression of NRAMP2 in intestine |
| O=C(O)CNC(=O)c1nc(Cl)c2ccccc2c1O [Compound A, [(1-Chloro-4-hydroxy-isoquinoline-3-carbonyl)-amino]-acetic acid] | overcame the suppressive effects of TNF-α on EPO production | greatly reduced the inhibitory effects of TNF-α on EPO production | dose-dependent increase in EPO production | overcame the suppressive effects of IL-1 on EPO production | greatly reduced the inhibitory effects of IL-1β on EPO production | dose-dependent increase in EPO production | – | – | approximately 60 mIU/ml | approximately 270 mIU/ml | synergistic | increased EPO levels in a dose-dependent manner | 40.89 | 56.52 | 12.20 | increasing expression of NRAMP2 in intestine |
